Test results from article PMC6138628, “Enhanced uptake of gH625 by blood brain barrier compared to liver in vivo: characterization of the mechanism by an in vitro model and implications for delivery” (Scientific Reports, 2018).
Where two headings read alike, the source gives them in different places. Residues, ends and D or L forms follow the SMILES beside them.

Key:
[1] = 0.1 mM lipid, 37 °C, 100% = Triton X-100, repeated at least three times
Experimental: Large unilamellar vesicles (LUVs) and small unilamellar vesicles (SUVs) consisting of PI/DOPE/DPPC/PS/Chol/SM (4/23/30/8/20/15 ratio in moles)[33],[34], DSPC/POPE/PI/PS/lysoPC/SM/DOPG (37/21/7/9/3/18/5 ratio in moles)[35], and when required containing Rho-PE and NBD-PE, were formulated in 5 mM HEPES, 100 mM NaCl, pH 7.4. LUVs were prepared using the extrusion method as previously reported; lipids were first dissolved in chloroform, then dried under a nitrogen gas stream and lyophilized overnight. For fluorescence experiments, buffer was added to dry lipid films and vortexed for 1 h; then the lipid suspension was freeze-thawed 6 times and extruded 20 times through polycarbonate membranes with 0.1 μm diameter pores to obtain LUVs. For circular dichroism measurements, peptide samples in SUVs were prepared using the following protocol. Lipids were dissolved in chloroform and added to an equal volume of peptide solution dissolved in TFE containing appropriate peptide concentration. The samples were vortexed and lyophilized overnight. The dry samples were rehydrated with phosphate buffer (5 mM) for 1 h and sonicated for 30 min.
Membrane lipid mixing was followed by the resonance energy transfer assay (FRET)[39].

[2] = previous work; cited from earlier work
Excerpt: In general a high accumulation in the target tissue results in an improved therapeutic effect, while a large amount of drug distributed to non-target organs may cause unwanted toxicity and/or side effects. It is thus fundamental to reduce liver metabolism and renal clearance to produce prolonged blood circulation with an i ...

[3] = Membrane fluidity, Laurdan generalized polarization (GP); assay type: physicochemical; settings: P/L molar ratio 0.5, after 10 min, 37 °C, 5 mM HEPES, 100 mM NaCl, pH 7.4
Experimental: The samples were vortexed and lyophilized overnight.
LUVs containing Laurdan were prepared to determine membrane fluidity. In order to insert Laurdan into the bilayer, it was added to lipid films before hydration. The peptide gH625 was added to LUVs at a P/L molar ratio of 0.5 and after 10 min the fluorescence spectra were recorded using a 1 cm path length quartz cell, thermostated at 25 °C or 37 °C. Spectra were corrected for the baseline signal. Laurdan emission spectra were recorded from 400 to 550 nm with λex 365 nm in the absence or presence of gH625 in 5 mM HEPES, 100 mM NaCl buffer (pH 7.4). Laurdan emission can shift from 440, in the ordered phase, to 490 in the disordered phase. The excitation generalized polarization (GP) was calculated as GP = (I440 − I490)/(I440 + I490) where I440 and I490 are the fluorescence intensities at the maximum emission wavelength in the ordered (λem 440 nm) and disordered (λem 490 nm) phases.
LUVs fluidity before and after the addition of gH625 were obtained using the fluorescent probe Laurdan[47],[48]. […] The Generalized Polarization (GP) is a parameter commonly used to quantify the change in the lipid fluidity. […] The GP parameter allowed quantifying the effect of the peptide (Table 1). […]

[4] = test system: human neuroblastoma and glioblastoma astrocytoma; design: method as in PMID 25792823; settings: human neuroblastoma and glioblastoma astrocytoma cells; cited from earlier work

CC[C@H](C)[C@H](NC(=O)[C@H](CC(C)C)NC(=O)[C@H](C)NC(=O)[C@H](CC(N)=O)NC(=O)[C@H](Cc1ccc(O)cc1)NC(=O)[C@H](Cc1c[nH]cn1)NC(=O)[C@H](C)NC(=O)[C@H](Cc1c[nH]c2ccccc12)NC(=O)[C@H](CCCNC(=N)N)NC(=O)[C@@H](NC(=O)[C@H](CC(C)C)NC(=O)[C@@H](NC(=O)[C@H](CO)NC(=O)[C@H](C)NC(=O)[C@H](CC(C)C)NC(=O)CNC(=O)[C@@H](N)Cc1c[nH]cn1)[C@@H](C)O)[C@@H](C)O)C(=O)N[C@@H](CCCNC(=N)N)C(=O)N[C@@H](C)C(=O)N[C@@H](Cc1ccccc1)C(N)=O [gH625] (H-HGLASTLTRWAHYNALIRAF-NH2)
Maximum peptide/lipid ratio (P/L), complete fusion of vesicles ([1]; LUVs DSPC/POPE/PI/PS/lysoPC/SM/DOPG (37/21/7/9/3/18/5)): 0.7
Maximum peptide/lipid ratio (P/L), complete fusion of vesicles ([1]; LUVs PI/DOPE/DPPC/PS/Chol/SM (4/23/30/8/20/15)): 0.05
Alterations of cell viability or maximal mitochondrial oxidative capacity linked to uptake [2]: not linked to alterations of cell viability or maximal mitochondrial oxidative capacity
Generalized polarization (GP) value, +gH625 ([3]; Laurdan in LUVs DSPC/POPE/PI/PS/lysoPC/SM/DOPG (37/21/7/9/3/18/5), no peptide 37 °C: 0.40): 0.49
Generalized polarization (GP) value, +gH625 ([3]; Laurdan in LUVs PI/DOPE/DPPC/PS/Chol/SM (4/23/30/8/20/15), no peptide 37 °C: 0.19): 0.15
Percentage of uptake [4]: 80–90%
